Earlier results as cited in patent US8591947B2, “Dual controlled release dosage form” (Osmotica Kereskedelmi és Szolgáltató KFT, priority 2001, dated 2013).
Structures can show the parent of a compound that is named as a salt.

Q: For `COC(=O)C1=C(C)NC(C)=C(C(=O)OCC(C)C)C1c1ccccc1[N+](=O)[O-]` (stereo not drawn) [nisoldipine], which “Solubility of component in water (U.S.P. term)” value (shortened to “Solubility … (U.S.P. term)”) is on record?
A: practically insoluble

Q: For `CN(C)CCC=C1c2ccccc2C=Cc2ccccc21` [cyclobenzaprine HCl], which “Solubility … (U.S.P. term)” value is on record?
A: freely soluble

Q: Which “Solubility … (U.S.P. term)” value does the source give for `Cc1nc2n(c(=O)c1CCN1CCC(c3noc4cc(F)ccc34)CC1)CCCC2` [risperidone] here?
A: practically insoluble

Q: Which “Solubility … (U.S.P. term)” value does the source give for `COCCCOc1ccnc(C[S+]([O-])c2nc3ccccc3[nH]2)c1C` (stereo not drawn) [rabeprazole sodium] here?
A: very soluble

Q: With `CC(=O)Oc1ccccc1C(=O)O` [aspirin] as the compound, how does the “Solubility … (U.S.P. term)” value read?
A: slightly soluble

Q: With `Cc1ncc([N+](=O)[O-])n1CCO` [metronidazole] as the compound, how does the “Solubility … (U.S.P. term)” value read?
A: sparingly soluble

Q: For `CC[C@@H](C(N)=O)N1CCCC1=O` [levetiracetam], which “Solubility … (U.S.P. term)” value is on record?
A: very soluble

Q: Which “Solubility … (U.S.P. term)” value does the source give for `C[C@@H]1C[C@H]2[C@@H]3CCC4=CC(=O)C=C[C@]4(C)[C@@]3(Cl)[C@@H](O)C[C@]2(C)[C@@]1(OC(=O)c1ccco1)C(=O)CCl` [mometasone furoate] here?
A: practically insoluble

Q: For `CC[C@H]1OC(=O)[C@H](C)[C@@H](O[C@H]2C[C@@](C)(OC)[C@@H](O)[C@H](C)O2)[C@H](C)[C@@H](O[C@@H]2O[C@H](C)C[C@H](N(C)C)[C@H]2O)[C@](C)(O)C[C@@H](C)CN(C)[C@H](C)[C@@H](O)[C@]1(C)O` [azithromycin dihydrate], which “Solubility … (U.S.P. term)” value is on record?
A: practically insoluble
